Earlier results, collected in PubChem BioAssay AID1259409 (Chemical Carcinogenesis Research Information System (CCRIS), 2018).
Values joined by “and” are separate entries in the source; they are usually repeats but may differ in a detail not shown here. Equal entries are not always repeated.

Test system: rodent chemically induced tumor inhibition, incidence and multiplicity
Assay: CCRIS tumor inhibitor studies
Settings: Carcinogen: 7,12-DIMETHYLBENZ[A]ANTHRACENE, 57-97-6, Route [Inhibitor]: DERMAL, Species: MOUSE, Target Tissue: Type of Lesion: SKIN: PAPILLOMA, Promoter: 12-O-TETRADECANOYLPHORBOL-13-ACETATE, 16561-29-8

In the case of `CC1=C(/C=C/C(C)=C/C=C/C(C)=C/C(=O)O)C(C)(C)CCC1`, the “tumour outcome (control, treated, inhibition, significance)” value (Dose [Inhibitor]: 17 NMOL IN 0.2 ML ACETONE 1 HR PRIOR TO EACH PROMOTER DOSE BEGINNING AT WEEK 10 OF PROMOTION AND CONTINUING FOR DURATION, Strain/Sex: CD-1/FEMALE, Dose [Carcinogen]: 200 NMOL IN 0.2 ML ACETONE ONCE) is given as 100%, 95%, 5%, p>0.3, the “tumour outcome (control, treated, inhibition, significance)” value (Dose [Inhibitor]: 17 NMOL IN 0.2 ML ACETONE 1 HR PRIOR TO EACH PROMOTER DOSE FOR 12 WK (STUDY DURATION: 14 WK), Strain/Sex: SENCAR/FEMALE, Dose [Carcinogen]: 200 NMOL IN 0.2 ML ACETONE ONCE) is given as 100%, 87%, 13%, not calculated and the “tumour outcome (control, treated, inhibition, significance)” value (Dose [Inhibitor]: 17 NMOL IN 0.2 ML ACETONE 1 HR PRIOR TO EACH PROMOTER DOSE FOR 20 WK (STUDY DURATION: 22 WK), Strain/Sex: CD-1/FEMALE, Dose [Carcinogen]: 200 NMOL IN 0.2 ML ACETONE ONCE) is given as 94%, 62%, 34%, not calculated. For the same compound, the “tumour outcome (control, treated, inhibition, significance)” value (Dose [Inhibitor]: 17 NMOL IN 0.2 ML ACETONE 1 HR PRIOR TO EACH PROMOTER DOSE FOR DURATION OF STUDY (STUDY DURATION: 27 WK), Strain/Sex: CD-1/FEMALE, Dose [Carcinogen]: 200 NMOL IN 0.2 ML ACETONE ONCE) was 100%, 60%, 40%, p<0.02, the “tumour outcome (control, treated, inhibition, significance)” value (Dose [Inhibitor]: 17 NMOL IN 0.2 ML ACETONE 1 HR PRIOR TO EACH PROMOTER DOSE FOR FIRST 10 WK OF PROMOTION (STUDY DURATION: 27 WK), Strain/Sex: CD-1/FEMALE, Dose [Carcinogen]: 200 NMOL IN 0.2 ML ACETONE ONCE) was 100%, 90%, 10%, p>0.3 and the “tumour outcome (control, treated, inhibition, significance)” value (Dose [Inhibitor]: 17 NMOL IN 0.2 ML ACETONE 2/WK 1 HR BEFORE EACH PROMOTER APPLICATION STARTING 14 D AFTER CARCINOGEN APPLICATION AND CONT, Strain/Sex: CD-1/FEMALE, Dose [Carcinogen]: 0.2 UMOL IN 0.2 ML ACETONE ONCE) was 98%, 42%, 57%, not calculated. For the same compound, the “tumour outcome (control, treated, inhibition, significance)” value (Dose [Inhibitor]: 17 NMOL IN 0.2 ML ACETONE 2/WK 1 HR BEFORE EACH PROMOTER APPLICATION STARTING 14 D AFTER CARCINOGEN APPLICATION AND CONT, Strain/Sex: CD-1/FEMALE, Dose [Carcinogen]: 0.2 UMOL ONCE) was 100%, 80%, 20%, not significant, the “tumour outcome (control, treated, inhibition, significance)” value (Dose [Inhibitor]: 17 NMOL IN 0.2 ML ACETONE 2/WK 24 HR AFTER EACH PROMOTER TREATMENT STARTING 14 D AFTER CARCINOGEN TREATMENT AND CONTINUI, Strain/Sex: CD-1/FEMALE, Dose [Carcinogen]: 0.2 UMOL IN 0.2 ML ACETONE ONCE) was 98%, 96%, 2%, not significant and the “tumour outcome (control, treated, inhibition, significance)” value (Dose [Inhibitor]: 34 NMOL IN 0.2 ML ACETONE 2/WK 1 HR BEFORE EACH PROMOTER APPLICATION STARTING 14 D AFTER CARCINOGEN APPLICATION AND CONT, Strain/Sex: CD-1/FEMALE, Dose [Carcinogen]: 0.2 UMOL IN 0.2 ML ACETONE ONCE) was 90%, 55%, 39%, not calculated and 90%, 48%, 47%, not calculated. The “tumour outcome (control, treated, inhibition, significance)” value (Dose [Inhibitor]: 68 NMOL IN 0.2 ML ACETONE 2/WK 1 HR BEFORE EACH PROMOTER APPLICATION STARTING 14 D AFTER CARCINOGEN APPLICATION AND CONT, Strain/Sex: CD-1/FEMALE, Dose [Carcinogen]: 0.2 UMOL IN 0.2 ML ACTEONE ONCE) was 95%, 53%, 44%, not calculated.
